Measurements: EPA's ToxValDB 9.5 (doi:10.2903/j.efsa.2012.2927)
Where a name gives a salt, the structure may show the parent alone.

System: Rattus norvegicus
Conditions: oral, no effects
[1] = chronic, duration: 17 weeks, gavage
[2] = subchronic, duration: 90 days, diet
[3] = subchronic, duration: 90 days, drinking water

Row | Compound | NOAEL [1] [mg/kg-day] | NOAEL [2] [mg/kg-day] | NOAEL [3] [mg/kg-day] | NOAEL (subchronic, duration: 90 days) [mg/kg-day]
1 | CCC(CC)C(=O)O [2-Ethylbutyric acid] | > 1000 | > 2500 | > 1450 | > 219
2 | CC(C)CO [2-Methyl-1-propanol] | > 1000 | > 2500 | > 1450 | > 219
3 | CCC(C)C=O (stereo unspecified) [2-Methylbutanal] | > 1000 | > 2500 | > 1450 | > 219
4 | CCC(C)COC(C)=O (stereo unspecified) [2-Methylbutyl acetate] | > 1000 | > 2500 | > 1450 | > 219
5 | CCC(C)COC(=O)CC(C)C (stereo unspecified) [2-Methylbutyl isovalerate] | > 1000 | > 2500 | > 1450 | > 219
6 | CCCC(C)C(=O)O (stereo unspecified) [2-Methylpentanoic acid] | > 1000 | > 2500 | > 1450 | > 219
7 | CC(C)C(=O)O [2-Methylpropanoic acid] | > 1000 | > 2500 | > 1450 | > 219
8 | CC(C)CC=O [3-Methylbutanal] | > 1000 | > 2500 | > 1450 | > 219
9 | CC(=O)OCCC(C)C [3-Methylbutyl acetate] | > 1000 | > 2500 | > 1450 | > 219
10 | CCC(=O)OCCC(C)C [3-Methylbutyl propanoate] | > 1000 | > 2500 | > 1450 | > 219
11 | CCC(C)C(=O)OCCC(C)C (stereo unspecified) [Butanoic acid, 2-methyl-, 3-methylbutyl ester] | > 1000 | > 2500 | > 1450 | > 219
12 | CCCC(=O)OCC(C)CC (stereo unspecified) [Butanoic acid, 2-methylbutyl ester] | > 1000 | > 2500 | > 1450 | > 219
13 | CC(C)COC(=O)CC(C)C [Butanoic acid, 3-methyl-, 2-methylpropyl ester] | > 1000 | > 2500 | > 1450 | > 219
14 | CCCC(=O)OCC(COC(=O)CCC)OC(=O)CCC [Glycerol tributyrate] | > 1000 | > 2500 | > 1450 | > 219
15 | CCCCCC(C)C(=O)O (stereo unspecified) [Heptanoic acid, 2-methyl-] | > 1000 | > 2500 | > 1450 | > 219
16 | CC(C)CCOC=O [Isoamyl formate] | > 1000 | > 2500 | > 1450 | > 219
17 | CC(=O)OCC(C)C [Isobutyl acetate] | > 1000 | > 2500 | > 1450 | > 219
18 | CCCC(=O)OCC(C)C [Isobutyl butyrate] | > 1000 | > 2500 | > 1450 | > 219
19 | CC(C)COC(=O)C(C)C [Isobutyl isobutyrate] | > 1000 | > 2500 | > 1450 | > 219
20 | CC(C)CCO [Isopentyl alcohol] | > 1000 | > 2500 | > 1450 | > 219
21 | CCCC(=O)OCCC(C)C [Isopentyl butyrate] | > 1000 | > 2500 | > 1450 | > 219
22 | CC(C)CCOC(=O)C(C)C [Isopentyl isobutyrate] | > 1000 | > 2500 | > 1450 | > 219
23 | CC(C)CC(=O)O [Isovaleric acid] | > 1000 | > 2500 | > 1450 | > 219
24 | CCCCC(C)CCC(=O)O (stereo unspecified) [Octanoic acid, 4-methyl-] | > 1000 | > 2500 | > 1450 | > 219
